Measurements from patent US20240158355A1, “BET SUBFAMILY INHIBITORS AND METHODS USING SAME” (Baylor College of Medicine, priority 2021, published 2024).

Key:
BRDT-BD1 = BRDT-BD1 (Homo sapiens (Human), UniProt Q58F21); assay: AlphaScreen bromodomain proximity assay (competition with biotinylated (+)-JQ1), BRDT-BD1; type: binding; conditions: NE: no effect at 10 μM
His-BRDT-BD2 = His-BRDT-BD2 (Homo sapiens (Human), UniProt Q58F21); conditions: 0 = theoretically present in the library but not detected in the sequencing data
[1] = Metabolic stability assay in human liver microsomes; type: in vitro ADME; conditions: read-out: HLM t1/2
Experimental: (§1) Compounds 3-10, 15, 17, and 20-22 (2.0 μM) were incubated in the mouse or human liver microsomes (0.5 mg protein/mL) at 37° C. […] The reaction mixtures were centrifuged at rcf 15,000 for 15 min. […] The column temperature was maintained at 40° C. […] Q Exactive MS was operated in positive or negative mode with electrospray ionization.

[2] = Metabolic stability assay in mouse liver microsomes; type: in vitro ADME; conditions: 2.0 μM, 0.5 mg protein/mL, 37° C., read-out: MLM t1/2
Experimental: as §1

BRDT-BD2 [3] = target: T1, BRDT-BD2 (Homo sapiens (Human), UniProt Q58F21); assay: AlphaScreen bromodomain proximity assay (competition with biotinylated (+)-JQ1), BRDT-BD2; type: binding
mice = conditions: cited from earlier work
[4] = mouse, in vivo; cited from earlier work
BD2 = conditions: cited from earlier work
BRD4-BD2 = BRD4-BD2 (Homo sapiens (Human), UniProt O60885); conditions: cited from earlier work
BRDT-BD2 [5] = target: T1, BRDT-BD2; conditions: BromoKdELECT dose-response
Experimental: (§2) Binding constants (Kds) were calculated with a standard dose-response curve using the Hill equation:
1+(KdHill Slope/DoseHill Slope)
The Hill Slope was set to −1.
(§3) Curves were fitted using a non-linear least square fit with the Levenberg-Marquardt algorithm.

bromodomains = conditions: BROMOscan competition binding
Experimental: as §2
1+(KdHill Slope/DoseHill Slope)
The Hill Slope was set to −1.
as §3

[6] = 2.0 μM, 0.5 mg protein/mL, 37° C.
[7] = data >60 min is an extrapolated estimate

SMILES	IC50 (BRDT-BD1)	Count (observed molecule count in the DEC-Tec screen against BRDT-BD2) (His-BRDT-BD2)	half-life at 2 μM [2]	IC50 (BRDT-BD2 [3])	half-life at 2 μM [1, 7]	also measured
CNC(=O)c1ccc(C(=O)Nc2cc(NC(=O)c3ccc4c(c3)c(-c3ccccc3C)nn4C)ccc2OC)cc1 [compound 6, N^1-(2-Methoxy-5-(1-methyl-3-(o-tolyl)-1H-indazole-5-carboxamido)phenyl)-N^4-methylterephthalamide]	6300 nM	0	40 min	61 nM	–	half-life at 2 μM [1, 6]: 17 min
Cc1sc2c(c1C)C(c1ccc(Cl)cc1)=N[C@@H](CC(=O)OC(C)(C)C)c1nnc(C)n1-2 [(+)-JQ1, tert-butyl (S)-2-(4-(4-chlorophenyl)-2,3,9-trimethyl-6H-thieno[3,2-f][1,2,4]triazolo[4,3-a][1,4]diazepin-6-yl)acetate]	–	–	–	–	–	contraceptive effect (mice): complete and reversible contraceptive effect; bioavailable across the blood-testis boundary [4]: 100%
CNC(=O)c1ccc(C(=O)Nc2cc(NC(=O)c3ccc4c(c3)c(-c3ccc(N)cc3)nn4C)ccc2OC)cc1 [compound 7, N^1-(5-(3-(4-Aminophenyl)-1-methyl-1H-indazole-5-carboxamido)-2-methoxyphenyl)-N^4-methylterephthalamide]	> 10000 nM	63	51 min	15 nM	250 min	–
CNC(=O)c1ccc(C(=O)Nc2cc(NC(=O)c3ccc4c(c3)c(-c3ccc(C)cc3C)nn4C)ccc2OC)cc1 [compound 5, N^1-(5-(3-(2,4-Dimethylphenyl)-1-methyl-1H-indazole-5-carboxamido)-2-methoxyphenyl)-N^4-methylterephthalamide]	> 10000 nM	515	20 min	26 nM	–	half-life at 2 μM [1, 6]: 18 min
CC(=O)Nc1c(F)cc(C(=O)N[C@H]2CC[C@H](O)CC2)cc1O[C@@H](C)c1ccccc1 [GSK046]	–	–	–	–	–	selectivity for BD2 over BD1 (BD2): > 300 fold
CCNC(=O)c1cc2c(-c3cc(C(C)(C)O)ccc3Oc3c(C)cc(F)cc3C)cn(C)c(=O)c2[nH]1 [ABBV-744]	–	–	–	–	–	selectivity for BRD4-BD2 (BRD4-BD2): 95-290 fold
CNC(=O)c1ccc(C(=O)Nc2cc(NC(=O)c3ccc4c(c3)c(-c3cc5ccccc5n3C)nn4C)ccc2OC)cc1 [compound 3, N^1-(2-Methoxy-5-(1-methyl-3-(1-methyl-1H-indol-2-yl)-1H-indazole-5-carboxamido)phenyl)-N^4-methylterephthalamide]	> 10000 nM	1039	31 min	22 nM	87 min	–
CNC(=O)c1ccc(C(=O)Nc2cc(NC(=O)c3ccc4c(c3)c(-c3ccc(N)cc3C)nn4C)ccc2OC)cc1 [compound 4, N^1-(5-(3-(4-Amino-2-methylphenyl)-1-methyl-1H-indazole-5-carboxamido)-2-methoxyphenyl)-N^4-methylterephthalamide]	> 10000 nM	838	14 min	12 nM	100 min	–
CC(=O)Nc1cc(NC(=O)c2ccc3c(c2)c(-c2ccc(N)cc2C)nn3C)ccc1C [compound 20, N-(3-Acetamido-4-methylphenyl)-3-(4-amino-2-methylphenyl)-1-methyl-1H-indazole-5-carboxamide]	> 10000 nM	–	–	8 nM	–	potency at binding BRDT-BD2 relative to (+)-JQ1 (BRDT-BD2 [5]): more than 20 fold; binding selectivity across bromodomains (bromodomains): potent and selective binding to only the second bromodomains within the BET subfamily
